System: rice seedlings
Test: 4,5-dimethylthiazole root drenching: rice seedling dry matter mass and chlorophyll content
Assay type: in vivo
Conditions: for Root System Biomass / Shoot Part Biomass / Total Biomass / Total Chlorophyll Content: 30 days of seedling cultivation; for Total Chlorophyll Content: leaves; for Root System Relative Value / Shoot Part Relative Value / Total Chlorophyll Content Relative Value / Total Relative Value: 30 days, vs Control 0 mg/L
Method: Five root irrigation solution concentrations (0, 20, 50, 100 and 200 mg/L) and three types of root drenching frequency (2, 4, and 6 times) were set. 4,5-dimethylthiazole of different mass was dissolved in distilled water to obtain root irrigation solutions at different concentrations. After normal rice seed soaking and accelerated germination, rice substrate soil was loaded 2 cm away from a seedling tray opening, gently compacted, and watered with pure water to be wet. A rice seedling nursery substrate was “rice seedling nursery substrate” purchased from Guangzhou Shengsheng Agriculture Co., Ltd., with main ingredients including peat, vermiculite and yellow mud. Two seeds were sowed in each hole on a substrate surface, covered with the substrate soil again to the seedling tray opening, and watered to be wet. Three days after the rice seedling emergence, the root irrigation solutions at different concentrations was applied once every five days, until there was a water layer of 5 mm on a surface of the substrate. Each treatment was applied with a consistent amount. The drenching was conducted during cooler evening hours to minimize evaporation. After 30 days of seedling cultivation, nine rice samples were taken from each treatment, divided into shoot parts and root system, which were dried and then weighed; and leaves were taken from another nine rice plants to measure chlorophyll content.

[1] = root drenching 2 Times, 20 mg/L
[2] = root drenching 2 Times, 50 mg/L
[3] = root drenching 2 Times, 100 mg/L
[4] = root drenching 2 Times, 200 mg/L
[5] = root drenching 4 Times, 20 mg/L
[6] = root drenching 4 Times, 50 mg/L
[7] = root drenching 4 Times, 100 mg/L
[8] = root drenching 4 Times, 200 mg/L
[9] = root drenching 6 Times, 20 mg/L
[10] = root drenching 6 Times, 50 mg/L
[11] = root drenching 6 Times, 100 mg/L
[12] = root drenching 6 Times, 200 mg/L

For Cc1ncsc1C [4,5-dimethylthiazole], the “Root System Biomass” value [1] was 7.5 mg/plant, the “Shoot Part Biomass” value [1] was 82.9 mg/plant and the “Total Biomass” value [1] was 90.4 mg/plant. For the same compound, the “Total Chlorophyll Content” value [1] was 4.77 mg/g, the “Root System Relative Value” [1] was 36.8% and the “Shoot Part Relative Value” [1] was 35.9%. For the same compound, the “Total Chlorophyll Content Relative Value” [1] was 27.8%, the “Total Relative Value” [1] was 36.0% and the “Root System Biomass” value [2] was 8.0 mg/plant. For the same compound, the “Shoot Part Biomass” value [2] was 79.8 mg/plant, the “Total Biomass” value [2] was 87.9 mg/plant and the “Total Chlorophyll Content” value [2] was 4.29 mg/g. The “Root System Relative Value” [2] was 46.7%, the “Shoot Part Relative Value” [2] was 30.8% and the “Total Chlorophyll Content Relative Value” [2] was 15.0%. For the same compound, the “Total Relative Value” [2] was 32.1%, the “Root System Biomass” value [3] was 8.3 mg/plant and the “Shoot Part Biomass” value [3] was 76.3 mg/plant. The “Total Biomass” value [3] was 84.6 mg/plant, the “Total Chlorophyll Content” value [3] was 3.82 mg/g and the “Root System Relative Value” [3] was 52.2%. The “Shoot Part Relative Value” [3] was 25.0%, the “Total Chlorophyll Content Relative Value” [3] was 2.5% and the “Total Relative Value” [3] was 27.2%. For the same compound, the “Root System Biomass” value [4] was 6.3 mg/plant, the “Shoot Part Biomass” value [4] was 62.9 mg/plant and the “Total Biomass” value [4] was 69.2 mg/plant. For the same compound, the “Total Chlorophyll Content” value [4] was 4.51 mg/g, the “Root System Relative Value” [4] was 15.6% and the “Shoot Part Relative Value” [4] was 3.1%. The “Total Chlorophyll Content Relative Value” [4] was 20.8%, the “Total Relative Value” [4] was 4.1% and the “Root System Biomass” value [5] was 7.0 mg/plant. The “Shoot Part Biomass” value [5] was 74.5 mg/plant, the “Total Biomass” value [5] was 81.5 mg/plant and the “Total Chlorophyll Content” value [5] was 4.15 mg/g. The “Root System Relative Value” [5] was 27.7%, the “Shoot Part Relative Value” [5] was 22.1% and the “Total Chlorophyll Content Relative Value” [5] was 11.2%. For the same compound, the “Total Relative Value” [5] was 22.6%, the “Root System Biomass” value [6] was 8.0 mg/plant and the “Shoot Part Biomass” value [6] was 79.9 mg/plant. The “Total Biomass” value [6] was 87.9 mg/plant, the “Total Chlorophyll Content” value [6] was 4.09 mg/g and the “Root System Relative Value” [6] was 46.3%. For the same compound, the “Shoot Part Relative Value” [6] was 30.9%, the “Total Chlorophyll Content Relative Value” [6] was 9.8% and the “Total Relative Value” [6] was 32.2%. For the same compound, the “Root System Biomass” value [7] was 7.7 mg/plant, the “Shoot Part Biomass” value [7] was 79.6 mg/plant and the “Total Biomass” value [7] was 87.3 mg/plant. The “Total Chlorophyll Content” value [7] was 3.82 mg/g, the “Root System Relative Value” [7] was 41.6% and the “Shoot Part Relative Value” [7] was 30.4%. The “Total Chlorophyll Content Relative Value” [7] was 2.3%, the “Total Relative Value” [7] was 31.3% and the “Root System Biomass” value [8] was 5.4 mg/plant. The “Shoot Part Biomass” value [8] was 70.1 mg/plant, the “Total Biomass” value [8] was 75.5 mg/plant and the “Total Chlorophyll Content” value [8] was 3.89 mg/g. The “Root System Relative Value” [8] was −0.7%, the “Shoot Part Relative Value” [8] was 14.8% and the “Total Chlorophyll Content Relative Value” [8] was 4.2%. For the same compound, the “Total Relative Value” [8] was 13.6%, the “Root System Biomass” value [9] was 8.6 mg/plant and the “Shoot Part Biomass” value [9] was 82.7 mg/plant. The “Total Biomass” value [9] was 91.3 mg/plant, the “Total Chlorophyll Content” value [9] was 4.03 mg/g and the “Root System Relative Value” [9] was 51.8%. The “Shoot Part Relative Value” [9] was 35.4%, the “Total Chlorophyll Content Relative Value” [9] was 8.1% and the “Total Relative Value” [9] was 37.3%. For the same compound, the “Root System Biomass” value [10] was 7.9 mg/plant, the “Shoot Part Biomass” value [10] was 85.8 mg/plant and the “Total Biomass” value [10] was 93.7 mg/plant. The “Total Chlorophyll Content” value [10] was 4.32 mg/g, the “Root System Relative Value” [10] was 44.7% and the “Shoot Part Relative Value” [10] was 40.6%. For the same compound, the “Total Chlorophyll Content Relative Value” [10] was 15.9%, the “Total Relative Value” [10] was 41.0% and the “Root System Biomass” value [11] was 7.1 mg/plant. For the same compound, the “Shoot Part Biomass” value [11] was 74.7 mg/plant, the “Total Biomass” value [11] was 81.8 mg/plant and the “Total Chlorophyll Content” value [11] was 4.20 mg/g. The “Root System Relative Value” [11] was 30.2%, the “Shoot Part Relative Value” [11] was 22.4% and the “Total Chlorophyll Content Relative Value” [11] was 12.7%. The “Total Relative Value” [11] was 23.1%, the “Root System Biomass” value [12] was 7.1 mg/plant and the “Shoot Part Biomass” value [12] was 63.5 mg/plant. The “Total Biomass” value [12] was 70.6 mg/plant, the “Total Chlorophyll Content” value [12] was 3.79 mg/g and the “Root System Relative Value” [12] was 29.7%. The “Shoot Part Relative Value” [12] was 4.1%, the “Total Chlorophyll Content Relative Value” [12] was 1.6% and the “Total Relative Value” [12] was 6.2%.

— patent US20250366474A1, “USE OF 4,5-DIMETHYLTHIAZOLE IN PROMOTING PLANT GROWTH” (HUAZHONG AGRICULTURAL UNIVERSITY, priority 2024, published 2025)
